The target in the assay is T1, full-length ATR (Homo sapiens, UniProt Q13535).
T1 construct: Assays were carried out at 25° C. in the presence of 5 nM full-length ATR
T1 sequence (Q13535 whole entry): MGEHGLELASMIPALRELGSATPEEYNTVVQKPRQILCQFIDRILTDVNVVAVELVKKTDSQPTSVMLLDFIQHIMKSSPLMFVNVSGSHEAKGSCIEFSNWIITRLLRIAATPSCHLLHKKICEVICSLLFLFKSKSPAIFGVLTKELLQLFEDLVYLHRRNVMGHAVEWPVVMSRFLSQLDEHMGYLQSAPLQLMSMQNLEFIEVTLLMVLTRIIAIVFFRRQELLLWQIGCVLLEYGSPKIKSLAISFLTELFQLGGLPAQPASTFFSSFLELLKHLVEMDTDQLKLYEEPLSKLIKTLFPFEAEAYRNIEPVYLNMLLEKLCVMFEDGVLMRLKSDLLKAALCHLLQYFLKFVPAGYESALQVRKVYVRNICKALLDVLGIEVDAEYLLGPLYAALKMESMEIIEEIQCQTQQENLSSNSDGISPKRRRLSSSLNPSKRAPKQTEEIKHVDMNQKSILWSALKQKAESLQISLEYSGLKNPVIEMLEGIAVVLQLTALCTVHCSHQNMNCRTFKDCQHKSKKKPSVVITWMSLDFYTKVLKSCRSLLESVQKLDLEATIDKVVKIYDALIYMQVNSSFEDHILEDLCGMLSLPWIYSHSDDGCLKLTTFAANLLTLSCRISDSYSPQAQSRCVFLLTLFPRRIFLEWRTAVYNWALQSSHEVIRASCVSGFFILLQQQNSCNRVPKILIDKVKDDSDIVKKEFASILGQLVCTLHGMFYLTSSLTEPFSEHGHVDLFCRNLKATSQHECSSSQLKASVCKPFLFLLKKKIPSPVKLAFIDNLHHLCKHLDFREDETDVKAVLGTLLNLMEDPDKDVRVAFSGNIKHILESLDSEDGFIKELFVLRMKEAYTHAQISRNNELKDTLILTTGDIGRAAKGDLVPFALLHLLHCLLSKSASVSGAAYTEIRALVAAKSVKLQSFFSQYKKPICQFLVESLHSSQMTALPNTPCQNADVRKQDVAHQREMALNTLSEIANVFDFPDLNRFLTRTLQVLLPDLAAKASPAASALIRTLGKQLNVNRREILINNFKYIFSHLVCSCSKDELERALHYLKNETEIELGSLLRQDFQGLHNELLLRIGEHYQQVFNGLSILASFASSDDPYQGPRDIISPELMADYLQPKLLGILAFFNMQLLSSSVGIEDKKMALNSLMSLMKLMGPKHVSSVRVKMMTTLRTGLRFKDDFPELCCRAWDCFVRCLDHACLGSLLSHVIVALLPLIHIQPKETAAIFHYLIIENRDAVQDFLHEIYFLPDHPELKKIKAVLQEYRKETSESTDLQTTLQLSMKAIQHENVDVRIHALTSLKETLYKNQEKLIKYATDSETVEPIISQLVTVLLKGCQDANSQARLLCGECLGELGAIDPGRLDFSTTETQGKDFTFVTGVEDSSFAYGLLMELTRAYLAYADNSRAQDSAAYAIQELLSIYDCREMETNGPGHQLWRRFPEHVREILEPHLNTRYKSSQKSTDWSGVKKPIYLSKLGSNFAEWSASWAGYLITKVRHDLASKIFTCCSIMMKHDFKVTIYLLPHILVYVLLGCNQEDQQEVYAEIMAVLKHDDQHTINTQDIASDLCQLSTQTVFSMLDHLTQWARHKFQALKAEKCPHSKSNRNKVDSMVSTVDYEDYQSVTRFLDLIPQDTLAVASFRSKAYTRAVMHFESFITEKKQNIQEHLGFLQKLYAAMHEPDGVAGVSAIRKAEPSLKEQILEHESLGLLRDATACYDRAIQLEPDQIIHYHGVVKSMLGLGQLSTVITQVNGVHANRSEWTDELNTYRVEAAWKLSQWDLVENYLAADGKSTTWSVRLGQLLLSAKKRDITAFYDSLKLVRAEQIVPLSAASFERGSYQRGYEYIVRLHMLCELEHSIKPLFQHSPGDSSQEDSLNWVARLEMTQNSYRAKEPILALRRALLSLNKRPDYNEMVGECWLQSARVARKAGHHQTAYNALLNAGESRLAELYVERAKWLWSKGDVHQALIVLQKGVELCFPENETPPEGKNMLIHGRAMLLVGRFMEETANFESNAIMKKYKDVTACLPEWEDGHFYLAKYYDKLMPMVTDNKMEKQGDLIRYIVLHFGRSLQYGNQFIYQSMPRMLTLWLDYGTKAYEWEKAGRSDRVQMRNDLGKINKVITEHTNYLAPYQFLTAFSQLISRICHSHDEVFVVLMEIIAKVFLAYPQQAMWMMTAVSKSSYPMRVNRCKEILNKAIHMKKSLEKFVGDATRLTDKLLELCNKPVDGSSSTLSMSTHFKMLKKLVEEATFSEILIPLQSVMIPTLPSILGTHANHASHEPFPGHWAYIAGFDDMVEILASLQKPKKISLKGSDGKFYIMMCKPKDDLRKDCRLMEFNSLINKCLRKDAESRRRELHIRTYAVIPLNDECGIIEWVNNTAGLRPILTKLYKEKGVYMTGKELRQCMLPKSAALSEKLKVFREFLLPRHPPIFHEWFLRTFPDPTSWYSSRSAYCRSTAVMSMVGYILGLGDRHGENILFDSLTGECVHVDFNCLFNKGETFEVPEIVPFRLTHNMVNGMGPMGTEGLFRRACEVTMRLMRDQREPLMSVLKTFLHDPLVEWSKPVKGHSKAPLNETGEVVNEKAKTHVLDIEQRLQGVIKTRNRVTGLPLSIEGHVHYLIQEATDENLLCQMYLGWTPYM
Briefly: ATR Inhibition Assay (radioactive-phosphate incorporation). It is filed as biochemical. To be noted: 5 nM full-length ATR, 10 μM [γ-33P]ATP, 800 μM target peptide, 25° C.; read-out: Ki value (Ki(app)) for inhibition of ATR. On the procedure: Compounds were screened for their ability to inhibit ATR kinase using a radioactive-phosphate incorporation assay. Assays were carried out in a mixture of 50 mM Tris/HCl (pH 7.5), 10 mM MgCl2 and 1 mM DTT. Final substrate concentrations were 10 μM [γ-^33P]ATP (3mCi 33P ATP/mmol ATP, Perkin Elmer) and 800 μM target peptide ([…]).
Assays were carried out at 25° C. in the presence of 5 nM full-length ATR. An assay stock buffer solution was prepared containing all of the reagents listed above, with the exception of ATP and the test compound of interest. 13.5 μL of the stock solution was placed in a 96 well plate followed by addition of 2 μL of DMSO stock containing serial dilutions of the test compound (typically starting from a final concentration of 15 μM with 3-fold serial dilutions) in duplicate (final DMSO concentration 7%). The plate was pre-incubated for 10 minutes at 25° C. and the reaction initiated by addition of 15 μl [γ-^33P]ATP (final concentration 10 μM).
The reaction was stopped after […] by the addition of 30 μL 0.1M phosphoric acid containing 2 mM ATP. A multiscreen phosphocellulose filter 96-well plate (Millipore, Cat no. MAPHN0B50) was pretreated with 100 μL 0.2M phosphoric acid prior to the addition of 45 μL of the stopped assay mixture. The plate was washed with 5×200 μL 0.2M phosphoric acid. After drying, 100 μL Optiphase ‘SuperMix’ liquid scintillation cocktail (Perkin Elmer) was added to the well prior to scintillation counting (1450 Microbeta Liquid Scintillation Counter, Wallac).
After removing mean background values for all of the data points, Ki(app) data were calculated from non-linear regression analysis of the initial rate data using the Prism software package (GraphPad Prism version 3.0cx for Macintosh, GraphPad Software, San Diego Calif., USA).
Take `Cc1ncc(-c2ccc(S(C)(=O)=O)cc2)nc1C(=O)Nc1ccccc1` [Compound IV-1, 3-Methyl-6-(4-(methylsulfonyl)phenyl)-N-phenylpyrazine-2-carboxamide]: the Ki lay in the range of 0.25 to 0.5 µM.
For the compound `CC(C)S(=O)(=O)c1ccc(-c2cncc(-c3cc(-c4ccccc4)no3)n2)cc1` [Compound IV-2, 5-(6-(4-(isopropylsulfonyl)phenyl)pyrazin-2-yl)-3-phenylisoxazole], the Ki was 0.1 to 0.25 µM.
As to `CNCc1ccc(-c2cc(-c3cncc(-c4ccc(S(=O)(=O)C(C)C)cc4)n3)on2)cc1` [Compound IV-3, 1-(4-(5-(6-(4-(isopropylsulfonyl)phenyl)pyrazin-2-yl)isoxazol-3-yl)phenyl)-N-methylmethanamine], the Ki was less than 0.1 µM.

For the origin of these results see patent US9334244B2, “Compounds useful as inhibitors of ATR kinase” (Vertex Pharmaceuticals Incorporated, priority 2010, dated 2016).
